Measured values reported in US9775335B2, “Durable coating-embedded pesticides with peel and stick mosquito treatment of containers” (University of Florida Research Foundation, Inc., priority 2013, dated 2017).

Tests used:
Format in all cases: in vivo
[1] = tested on: mosquito larvae; experiment: Mosquito larval mortality with coating-embedded larvicide, 0-week and 20-week aging (FIGS. 17-18)
From the text: FIG. 17 is a graph of mosquito larval mortality after 0-week aging with the average live mosquitoes on the vertical axis versus exposure time on the horizontal axis.
FIG. 18 is a graph of mosquito larval mortality after 20-week aging with the average live mosquitoes on the vertical axis versus exposure time on the horizontal axis.
FIG. 17 is a graph of mosquito larval mortality over 0-week aging with amount of mosquitoes on the vertical axis versus exposure time on the horizontal axis.
FIG. 18 is a graph of mosquito larval mortality over 20-week aging on the vertical axis versus exposure time on the horizontal axis.
By embedding the larvicide pyriproxyfen in a coating, the mosquito killing action is protected from degradation for more than 20 weeks.

[2] = tested on: mosquito larvae; experiment: Adult mosquito emergence, larvicide embedded in different coatings at different rates (FIG. 23)
From the text: Referring to FIG. 23, three different coating were used to embed the larvicide pyriproxyfen at 3 different rates. Coatings were applied to plastic containers that were filled with water, before mosquito larvae were transferred to these containers.
Several different formulae (polycrylic, Polyurethane and Latex paint) have been tested as coatings for the larvicide. All coatings performed well in preventing adult emergence from larvae added to water-holding containers coated internally with the coating-embedded larvicide even with 0.0001% of the active ingredient in the coating. Water treated with 0.01% rate is considered potable by the World Health Organization (WHO).

[3] = tested on: mosquito larvae; experiment: Adult mosquito emergence after high volume washing of coated containers (FIG. 24); conditions: embedded in polycrylic and polyurethane coatings; washed with tap water 5×, 20×, 50× container volume, refilled with fresh water
Description: Referring to FIG. 24, two of the coating tested previously (refer to FIG. 23) were also tested for durability under high volume washing to see if they could stand under heavy rains. The coatings applied to plastic containers were subject to continuous washing with tap water for total volumes equivalent to 5×, 20×, and 50× the container volumes. After wards the containers were refilled with fresh water and mosquito larvae were added to the water. Adult emergence from the larvae was only observed in containers with coatings that contained no embedded larvicide. […] Coatings prevent larvicide washing off, with up to 50 times the volume of water as contained in the ovitrap. Most larvicides are applied to water and disappear when containers are emptied and re filled either naturally by rain action or by other means. The coating constantly treats new water put in containers with enough larvicide to preserve the mosquito-killing action. Both polycrylic and polyurethane protect the action of pyriproxyfen larvicide when containers coated with these materials are subjected to washing.

SMILES: CC(COc1ccc(Oc2ccccc2)cc1)Oc1ccccn1 (centres unmarked) [pyriproxyfen, Pyriproxyfen]
- time for which the mosquito killing action is protected from degradation ([1]; larvicide embedded in a coating): more than 20 weeks
- mosquito larval mortality / prevention of mosquito emergence ([1]; water in contact with coating-embedded larvicide or larvicide applied directly to container, new material or aged 20 weeks): mosquito larvae start to die as they reach the pupal stage
- adult mosquito emergence ([2]; embedded in three different coatings at 3 rates, applied to plastic containers filled with water): no emergence of mosquitoes even at low pyriproxyfen content
- adult mosquito emergence ([2]; water standard (no coating), 3 rates): mosquito emergence was only inhibited at the high pyriproxyfen level
- adult mosquito emergence after washing [3]: prevented the emergence of adults
